These results are taken from patent publication US8541572B2.

pIC50: −log10 of the molar value. Like-named read-outs stand apart in the source and are kept apart here.

This experiment has as its system TNF-α production in LPS-stimulated human whole blood. The experiment in a line: Inhibition of TNF-α production from human whole blood (hWBA). It counts as cell-based. To be noted: for pIC50: read-out: hWBA.
Where [1] appears, read: IC50 for TNF-α production, LPS-stimulated human whole blood.
Where [2] appears, read: IC50 for inhibition of TNF-α production, LPS-stimulated human whole blood.
[3] abbreviates: Homo sapiens, IC50 for inhibition of TNF-α production, LPS-stimulated human whole blood.
The mark [4] stands for this setting: Homo sapiens, IC50 for TNF-α production, LPS-stimulated human whole blood.

In the case of `COc1ccc2c(c1F)C(=O)N(C[C@@]1(C#Cc3ccc(C4(C#N)CCN(C)CC4)cc3)NC(=O)NC1=O)C2` [Compound 1313], the IC50 (Homo sapiens, read-out: hWBA (nM)) was determined as 669 nM.

With `COc1ccc2c(c1)C(=O)N(C[C@@]1(C#Cc3cccnc3-c3ccncc3)NC(=O)NC1=O)C2` [Compound 2291], the pIC50 under setting [1] was 5.64.

In the case of `COc1ccc2c(c1)C(=O)N(C[C@@]1(C#Cc3ccc4[nH]nc(N)c4c3)NC(=O)NC1=O)C2` [Compound 2237], the pIC50 under setting [2] is 6.28.

Turning to `COc1ccc2c(c1)C(=O)N(C[C@@]1(C#Cc3ccc(C(=NO)N4CCCN(C(C)C)CC4)cc3)NC(=O)NC1=O)C2` [Compound 931], the pIC50 under setting [1] is 7.33.

Consider `COc1ccc2c(c1)C(=O)N(C[C@@]1(C#Cc3ccc(N(c4cccnc4)C4CCNCC4)nc3)NC(=O)NC1=O)C2` [Compound 2200], for which, under setting [2], the pIC50 is 6.37.

As to `COc1ccc2c(c1)C(=O)N(C[C@@]1(C#Cc3ccc4c(O)n[nH]c4c3)NC(=O)NC1=O)C2` [Compound 748], the pIC50 under setting [2] was 6.81.

On to `COc1ccc2c(c1)C(=O)N(C[C@@]1(C#Cc3nc(-c4ccc(S(=O)(=O)NC5CC5)cc4)ccc3OC)NC(=O)NC1=O)C2` [Compound 1512], for which, under setting [2], the pIC50 was 5.15.

Regarding `COc1ccc2c(c1)C(=O)N(C[C@@]1(C#Cc3ccc(-n4cncn4)cc3)NC(=O)NC1=O)C2` [Compound 1170], the pIC50 under setting [3] was 5.94.

Regarding `COc1ccc2c(c1)C(=O)N(C[C@@]1(C#Cc3ccc(-n4cnc(CCNC(C)=O)c4)cc3)NC(=O)NC1=O)C2` [Compound 1120], the pIC50 under setting [2] was 6.34.

With `COc1ccc2c(c1)C(=O)N(C[C@@]1(C#Cc3cc(C(N)=O)ccc3C)NC(=O)NC1=O)C2` [Compound 2220], the pIC50 under setting [3] was 6.38.

On to `CCN1CCN(C(=O)C2CC(=O)N(c3ccc(C#C[C@]4(CN5Cc6ccc(OC)cc6C5=O)NC(=O)NC4=O)cc3)C2)CC1` (some centres unmarked) [Compound 1319], for which, under setting [2], the pIC50 is 6.03.

With `COc1ccc2c(c1)C(=O)N(C[C@@]1(C#Cc3ccc(NC(=O)C4CCN(C)CC4)cc3)NC(=O)NC1=O)C2` [Compound 1909], under setting [3], the pIC50 is 7.11.

On to `COc1ccc2c(c1)C(=O)N(C[C@@]1(C#Cc3cccnc3N3CCOCC3)NC(=O)NC1=O)C2` [Compound 2287], for which the pIC50 under setting [4] is 6.20.

Regarding `COc1ccc2c(c1)C(=O)N(C[C@@]1(C#Cc3ccc(-c4nc(-c5cnn(C)c5)ccc4O)cc3)NC(=O)NC1=O)C2` [Compound 973], the pIC50 under setting [2] was 7.21.

For the compound `COc1ccc2c(c1)C(=O)N(C[C@@]1(C#Cc3ccc(CN4CCN(c5nccs5)CC4)cc3)NC(=O)NC1=O)C2` [Compound 980], the pIC50 under setting [3] was 5.50.

As for `COc1ccc2c(c1)C(=O)N(C[C@@]1(C#Cc3cccnc3-c3cccnc3)NC(=O)NC1=O)C2` [Compound 2270], the pIC50 under setting [4] was 5.68.

For `COc1ccc2c(c1)C(=O)N(C[C@@]1(C#Cc3ccc(N4CCCCC4=O)cc3)NC(=O)NC1=O)C2` [Compound 2295], under setting [4], the pIC50 was 5.86.

For `COc1ccc2c(c1F)C(=O)N(C[C@@]1(C#Cc3ccc(-c4cccc(N5CCOCC5)n4)cc3)NC(=O)NC1=O)C2` [Compound 995], under setting [2], the pIC50 was 5.79.

Consider `COc1ccc2c(c1F)C(=O)N(C[C@@]1(C#Cc3ccc(C(CN)N4CCC(NC(=O)OC(C)(C)C)C4)cc3)NC(=O)NC1=O)C2` (some centres unmarked) [Compound 1702], for which the pIC50 under setting [3] is 6.52.

With `COc1ccc2c(c1)C(=O)N(C[C@@]1(C#Cc3ccc(CCNC(=O)C(F)(F)F)s3)NC(=O)NC1=O)C2` [Compound 2221], the pIC50 under setting [3] is 6.03.

Turning to `COc1ccc2c(c1)C(=O)N(C[C@@]1(C#Cc3ccc(-c4cc(N)[nH]n4)cc3)NC(=O)NC1=O)C2` [Compound 747], the pIC50 under setting [2] is 6.89.

As for `COc1ccc2c(c1)C(=O)N(C[C@@]1(C#Cc3cncc(-c4csc(N)n4)c3)NC(=O)NC1=O)C2` [Compound 2233], under setting [2], the pIC50 is 6.09.

For `COc1ccc2c(c1F)C(=O)N(C[C@@]1(C#Cc3ccc4c(=O)[nH][nH]c4c3)NC(=O)NC1=O)C2` [Compound 301], the pIC50 under setting [2] was 6.65.

Regarding `CCCCN1CCN(C(=NO)c2ccc(C#C[C@]3(CN4Cc5ccc(OC)cc5C4=O)NC(=O)NC3=O)cc2)CC1` [Compound 925], the pIC50 under setting [1] is 7.13.

Turning to `COc1ccc2c(c1)C(=O)N(C[C@@]1(C#Cc3cnc4nc(O)oc4c3)NC(=O)NC1=O)C2` [Compound 2244], the pIC50 under setting [2] is 6.24.

Take `COc1ccc2c(c1)C(=O)N(C[C@@]1(C#Cc3ccc(-c4cccc(C)c4O)nc3)NC(=O)NC1=O)C2` [Compound 1300]: the pIC50 under setting [2] was 5.46.

As for `COc1ccc2c(c1)C(=O)N(C[C@@]1(C#Cc3ccc(OC)nc3OC)NC(=O)NC1=O)C2` [Compound 2230], the pIC50 under setting [3] is 6.00.

In the case of `COc1ccc2c(c1F)C(=O)N(C[C@@]1(C#Cc3ccc(CN4CCOCC4)nc3)NC(=O)NC1=O)C2` [Compound 965], the pIC50 under setting [2] is 6.16.

With `COc1ccc2c(c1)C(=O)N(C[C@@]1(C#Cc3nc(-c4cccc(O)c4)ccc3OC)NC(=O)NC1=O)C2` [Compound 1922], the pIC50 under setting [2] was 5.00.

Take `COc1ccc2c(c1)C(=O)N(C[C@@]1(C#Cc3ccc(-n4cnc(CCNC(C)=O)c4)nc3)NC(=O)NC1=O)C2` [Compound 1130]: the pIC50 under setting [3] was 6.28.

Regarding `COc1ccc2c(c1)C(=O)N(C[C@@]1(C#Cc3ccc(N4CCCCC4)nc3)NC(=O)NC1=O)C2` [Compound 1509], the pIC50 under setting [3] is 6.29.

Regarding `COc1ccc2c(c1)C(=O)N(C[C@@]1(C#Cc3ccc(-c4cccc(Cl)c4O)nc3)NC(=O)NC1=O)C2` [Compound 1315], under setting [2], the “hWBA (nM)” value was “Inactive”.

Take `COc1ccc2c(c1)C(=O)N(C[C@@]1(C#Cc3cncc(-c4ccc(O)c(-c5cn[nH]c5)n4)c3)NC(=O)NC1=O)C2` [Compound 1707]: under setting [2], the pIC50 was 6.43.

With `COc1ccc2c(c1)C(=O)N(C[C@@]1(C#Cc3ccc(C(=NO)N4CCOCC4)s3)NC(=O)NC1=O)C2` [Compound 952], the pIC50 under setting [1] is 6.24.

Take `COc1ccc2c(c1)C(=O)N(C[C@@]1(C#Cc3ccc(-c4ncccc4O)cc3)NC(=O)NC1=O)C2` [Compound 934]: the pIC50 under setting [1] was 6.93.

Turning to `CCN1CCN(c2n[nH]c3ccc(C#C[C@]4(CN5Cc6ccc(OC)cc6C5=O)NC(=O)NC4=O)cc23)CC1` [Compound 2238], the pIC50 under setting [2] is 6.37.

For `COc1ccc2c(c1F)C(=O)N(C[C@@]1(C#Cc3ccc(/C(=N/O)N4CCNC[C@@H]4C)c(F)c3)NC(=O)NC1=O)C2` [Compound 1309], the pIC50 under setting [2] was 7.38.

Regarding `COc1ccc2c(c1)C(=O)N(C[C@@]1(C#Cc3ccc4c(CN(C)C)n[nH]c4c3)NC(=O)NC1=O)C2` [Compound 728], the pIC50 under setting [2] is 6.79.

With `CCN1CCN(C(CO)c2ccc(C#C[C@]3(CN4Cc5ccc(OC)cc5C4=O)NC(=O)NC3=O)cc2)CC1` (some centres unmarked) [Compound 930], the pIC50 under setting [1] is 6.30.

Turning to `COc1ccc2c(c1F)C(=O)N(C[C@@]1(C#Cc3ccc(-c4nc(N5CCC(=O)CC5)ccc4O)cc3)NC(=O)NC1=O)C2` [Compound 1003], the pIC50 under setting [2] is 6.91.

Consider `CNC(=O)C1(c2ccc(C#C[C@]3(CN4Cc5ccc(OC)cc5C4=O)NC(=O)NC3=O)cc2)CC1` [Compound 2261], for which the pIC50 under setting [1] was 6.35.

Take `COc1ccc2c(c1)C(=O)N(C[C@@]1(C#Cc3cc(Br)ccc3O)NC(=O)NC1=O)C2` [Compound 2229]: the pIC50 under setting [3] was 5.00.

Take `COc1ccc2c(c1)C(=O)N(C[C@@]1(C#Cc3ccc(-c4c(C)n[nH]c4N)cc3)NC(=O)NC1=O)C2` [Compound 1303]: the pIC50 under setting [2] is 6.31.

Regarding `COc1ccc2c(c1)C(=O)N(C[C@@]1(C#Cc3ccc(C(CN)N4CCC(N)C4)cc3)NC(=O)NC1=O)C2` (some centres unmarked) [Compound 1705], under setting [2], the pIC50 was 6.63.

For `COc1ccc2c(c1)C(=O)N(C[C@@]1(C#Cc3ccc(C(=NO)N4CCN(C)CC4)nc3)NC(=O)NC1=O)C2` [Compound 953], the pIC50 under setting [1] is 7.06.

As to `C#C[C@]1(CN2Cc3ccc(OC)c(F)c3C2=O)NC(=O)NC1=O` [Compound 23], under setting [1], the pIC50 is 6.08.

In the case of `CCN1CCN(C(=O)C2CCC(=O)N2c2ccc(C#C[C@]3(CN4Cc5ccc(OC)c(F)c5C4=O)NC(=O)NC3=O)cc2)CC1` (some centres unmarked) [Compound 1903], the pIC50 under setting [2] is 6.82.

As for `COc1ccc2c(c1F)C(=O)N(C[C@@]1(C#Cc3ccc(CN4CCN(c5ccncc5)CC4)nc3)NC(=O)NC1=O)C2` [Compound 979], the pIC50 under setting [2] was 6.64.

Take `COc1ccc2c(c1F)C(=O)N(C[C@@]1(C#Cc3ccc(CN4CCSCC4)nc3)NC(=O)NC1=O)C2` [Compound 966]: the pIC50 under setting [2] was 6.23.

For `COc1ccc2c(c1)C(=O)N(C[C@@]1(C#Cc3ccc(C4=NCCN4)c(C)c3)NC(=O)NC1=O)C2` [Compound 1140], the pIC50 under setting [3] is 6.30.

Turning to `COc1ccc2c(c1)C(=O)N(C[C@@]1(C#Cc3cncc(NC(=O)C4CCN(C)CC4)c3)NC(=O)NC1=O)C2` [Compound 1908], under setting [2], the pIC50 was 6.52.

`COc1ccc2c(c1)C(=O)N(C[C@@]1(C#Cc3ccc(-n4c(C)n[nH]c4=O)cc3)NC(=O)NC1=O)C2` [Compound 1915]: the pIC50 under setting [2] was 6.61.

For the compound `COc1ccc2c(c1F)C(=O)N(C[C@@]1(C#Cc3ccc(-c4nc(-c5cccnc5)ccc4O)cc3)NC(=O)NC1=O)C2` [Compound 1001], under setting [3], the pIC50 is 6.98.

As to `COc1ccc2c(c1)C(=O)N(C[C@@]1(C#Cc3ccc(C4(CNS(C)(=O)=O)NC(=O)NC4=O)cc3)NC(=O)NC1=O)C2` (some centres unmarked) [Compound 1110], under setting [2], the pIC50 is 6.75.

Turning to `COc1ccc2c(c1)C(=O)N(C[C@@]1(C#Cc3cncc(-c4ccc(C(N)=O)cc4)c3)NC(=O)NC1=O)C2` [Compound 2208], the pIC50 under setting [2] is 6.44.

On to `COc1ccc2c(c1)C(=O)N(C[C@@]1(C#Cc3csc(C4(C)NC(=O)NC4=O)c3)NC(=O)NC1=O)C2` (some centres unmarked) [Compound 908], for which, under setting [1], the pIC50 is 6.27.

As to `COc1ccc2c(c1F)C(=O)N(C[C@@]1(C#Cc3ccc(-c4nc(-c5cccnc5)ccc4O)c(F)c3)NC(=O)NC1=O)C2` [Compound 1002], under setting [3], the pIC50 is 6.93.

Turning to `COc1ccc2c(c1)C(=O)N(C[C@@]1(C#Cc3ccc(NCCN(C)C)nc3)NC(=O)NC1=O)C2` [Compound 2289], the pIC50 under setting [1] is 6.38.

Turning to `COc1ccc2c(c1)C(=O)N(C[C@@]1(C#Cc3ccc(C(=NO)N4CCNC[C@@H]4C)cc3)NC(=O)NC1=O)C2` [Compound 2293], the pIC50 under setting [1] was 7.08.
